Among the data in ChEMBL document CHEMBL1127212, “Preparation and evaluation of the antiaggregating and vasodilating activities of the novel 3-nitro-4(3H)-quinazolinone derivatives” (Bioorg Med Chem Lett, 1993) are pD2 and IC50 values, retold here.

What all share (format): functional
The species entered for assay [1] is Oryctolagus cuniculus. Kind of assay: Tested for vasodilating activity using a transverse strip preparation of rabbit thoracic aorta.
For assay [2], the species on record is Oryctolagus cuniculus. Kind of assay: Tested in vitro for inhibition of aggregation induced by adenosine diphosphate (ADP) in rabbit platelet rich plasma at the dose of […].
Assay [3] is filed under the species Oryctolagus cuniculus. The assay is described as follows: Tested in vitro for inhibition of aggregation induced by Collagen in rabbit platelet rich plasma at the dose of 10 ug/ml.
Assay [4] is filed under the species Oryctolagus cuniculus. Kind of assay: Tested in vitro for inhibition of aggregation induced by arachidonic acid in rabbit platelet rich plasma at the dose of 125 uM.
For assay [5], the species on record is Oryctolagus cuniculus. The assay is described as follows: Tested for inhibition of aggregation induced by adenosine diphosphate (ADP) in rabbit platelet rich plasma in vitro at the dose of […].
The species named for assay [6] is Oryctolagus cuniculus. The assay is described as follows: Tested for inhibition of aggregation induced by Collagen in rabbit platelet rich plasma in vitro at the dose of 10 ug/ml.
The species named for assay [7] is Oryctolagus cuniculus. Kind of assay: Tested for inhibition of aggregation induced by arachidonic acid in rabbit platelet rich plasma in Vitro at the dose of 125 uM.

The molecule “SODIUM NITROPRUSSIDE [listing 1 of 2 here]” gave a pD2 in the assay listed under Oryctolagus cuniculus [1] of 4.08.
With `CC(=O)OC1N([N+](=O)[O-])C(=O)c2cc(Cl)ccc2N1[N+](=O)[O-]` (stereo unspecified), the concentration for half-maximal inhibition (IC50) in the assay filed under Oryctolagus cuniculus [2] (Oryctolagus cuniculus, Plasma) is 46 µM; in the assay filed under Oryctolagus cuniculus [3] (Oryctolagus cuniculus, Plasma) it was 52 µM; in the assay listed under Oryctolagus cuniculus [4], 40 µM. The pD2 in the assay listed under Oryctolagus cuniculus [1] worked out at 5.4.
“SODIUM NITROPRUSSIDE [listing 2 of 2 here]”: the results for the half-inhibitory concentration (IC50) in the assay filed under Oryctolagus cuniculus [2] and in the assay listed under Oryctolagus cuniculus [3] were 95 µM and less than 1000 µM, respectively.
Take `CC(=O)OC1N([N+](=O)[O-])C(=O)c2ccccc2N1[N+](=O)[O-]` (stereo unspecified): the IC50 in the assay listed under Oryctolagus cuniculus [5] came out at 48 µM; in the assay listed under Oryctolagus cuniculus [6] it was 52 µM; in the assay listed under Oryctolagus cuniculus [7] it was 50 µM. The molecule also registered a pD2 in the assay filed under Oryctolagus cuniculus [1] of 5.36.
